What was measured:
[1] = tested on: S. epidermidis 125; test: agar diffusion test (Test System II, multi-resistant germs); assay type: cell-based, Staphylococcus epidermidis
Experimental: (§1) The test substances are deposited in stepped quantities (10 μg, 50 μg, 100 μg) onto active ingredient carriers (sensi-discs). For this purpose, the test substances are dissolved in methanol or A. dest. according to their solubility. Each inoculated plate is fitted with 3 test sheets.
(§2) Test System II (Effect Against Multi-Resistant Germs)
(§3) For this purpose, bacteria is cultivated on Müller-Hinton-Agar II plates.
(§4) With 1-1.5 ml physiological saline solution, a bacteria suspension of McFarland 0.5 (corresponds to a bacteria density of 150×10^6 germs) is produced. Then, with a sterile glass rod, a small drop of bacteria suspension is placed on the Müller-Hinton-Agar plate and coated in three layers (vertical, horizontal, and transverse). Thereafter, the sensi-discs with the novel semi-synthetic test substances are placed on top. The fitted plates are incubated for 18-20 hours at 37° C. After incubation, the diameters of the zones of inhibition are read as a measure for the antimicrobial activity of the novel semi-synthetic test substances.

[2] = tested on: S. aureus 38418; test: as above; assay type: cell-based, Staphylococcus aureus
Experimental: as §1, §2, §3, §4

[3] = tested on: S. aureus ATCC 6538; test: as above; assay type: cell-based, Staphylococcus aureus
Experimental: as §1, §2, §3, §4

[4] = tested on: Bacillus megaterium SBUG 1152; test: agar diffusion test (Test System 1, antimicrobial effect); assay type: cell-based
Experimental: (§5) Test System 1 (Antimicrobial Effect)
(§6) The test germs Escherichia coli SBUG 1135 and Bacillus megaterium SBUG 1152 are drawn overnight (17 hours at 37° C.) in 5 ml nutrient medium II. The incubation is performed in a shaking incubator (INFORS AG CH 4103, Bottmingen, Switzerland) at a shaking frequency of 180 rpm.
(§7) After 17 h incubation time, Escherichia coli has reached a cell density of ca. 2.4×10^10 cells/ml and Bacillus megaterium a cell density of ca. 2.1×10^8 cells/ml.
(§8) The seeding of bacteria in agar is selected so that, dense, but not confluent individual colonies develop after the incubation.
Bacillus megaterium: 0.1 ml of non-diluted overnight culture (ÜN) in 10 ml nutrient agar corresponds to a cell count of 10^6.
(§9) The inoculated nutrient agar is set in sterile Petri dishes and left standing for a few minutes for drying.
as §1
(§10) After a 20-hour incubation time at 37° C., the zones of inhibition around the individual test sheets could be measured. The diameter of the zone of inhibition is specified in mm.

[5] = tested on: Enterococcus faecalis 769; test: agar diffusion test (Test System II, multi-resistant germs); assay type: cell-based; design: key: r = resistant (no detectable zone of inhibition)
Experimental: as §1, §2, §3, §4

[6] = tested on: Staphylococcus aureus 315; test: as above; assay type: cell-based; design: key: r = resistant (no detectable zone of inhibition)
Experimental: as §1, §2, §3, §4

[7] = tested on: S. epidermidis 1071; test: as above; assay type: cell-based, Staphylococcus epidermidis; design: key: r = resistant (no detectable zone of inhibition)
Experimental: as §1, §2, §3, §4

[8] = tested on: S. epidermidis 563; test: as above; assay type: cell-based, Staphylococcus epidermidis; design: key: r = resistant (no detectable zone of inhibition)
Experimental: as §1, §2, §3, §4

[9] = tested on: S. epidermidis 847; test: as above; assay type: cell-based, Staphylococcus epidermidis; design: key: r = resistant (no detectable zone of inhibition)
Experimental: as §1, §2, §3, §4

[10] = tested on: S. epidermidis 1068; test: as above; assay type: cell-based, Staphylococcus epidermidis; design: key: r = resistant (no detectable zone of inhibition)
Experimental: as §1, §2, §3, §4

[11] = tested on: S. aureus 526; test: as above; assay type: cell-based, Staphylococcus aureus; design: key: r = resistant (no detectable zone of inhibition)
Experimental: as §1, §2, §3, §4

[12] = tested on: S. aureus 34289; test: as above; assay type: cell-based, Staphylococcus aureus; design: key: r = resistant (no detectable zone of inhibition)
Experimental: as §1, §2, §3, §4

[13] = tested on: S. aureus 520; test: as above; assay type: cell-based, Staphylococcus aureus; design: key: r = resistant (no detectable zone of inhibition)
Experimental: as §1, §2, §3, §4

[14] = tested on: S. aureus 33490; test: as above; assay type: cell-based, Staphylococcus aureus; design: key: r = resistant (no detectable zone of inhibition)
Experimental: as §1, §2, §3, §4

[15] = tested on: S. aureus North Germany strain; test: as above; assay type: cell-based, Staphylococcus aureus; design: key: r = resistant (no detectable zone of inhibition)
Experimental: as §1, §2, §3, §4

[16] = tested on: S. aureus 39105; test: as above; assay type: cell-based, Staphylococcus aureus; design: key: r = resistant (no detectable zone of inhibition)
Experimental: as §1, §2, §3, §4

[17] = tested on: S. aureus 36881; test: as above; assay type: cell-based, Staphylococcus aureus; design: key: r = resistant (no detectable zone of inhibition)
Experimental: as §1, §2, §3, §4

[18] = tested on: Escherichia coli SBUG 1135; test: agar diffusion test (Test System 1, antimicrobial effect); assay type: cell-based; design: key: r = resistant (no detectable zone of inhibition)
Experimental: as §5, §6, §7, §8
Escherichia coli: the ÜN is diluted 1:100 with physiological saline solution, of which 0.1 ml is converted into 10 ml nutrient agar. That corresponds to a cell count of 10^6.
as §9, §1, §10

[19] = tested on: E. faecalis 945; test: agar diffusion test (Test System II, multi-resistant germs); assay type: cell-based, Enterococcus faecalis; design: key: r = resistant (no detectable zone of inhibition)
Experimental: as §1, §2, §3, §4

[20] = tested on: B. subtilis AWD 166; test: agar diffusion test (antimicrobial effect); assay type: cell-based, Bacillus subtilis
Experimental: as §8, §9, §1, §10

7-[2-(2-ethoxycarbonyl-3,6-dioxocyclohexa-1,4-dienylamino)-2-phenyl-acetylamino]-desacetoxycephalosporanic acid [1h]
Diameter of zone of inhibition ([1]; Quantity n 0.019): 12 mm
Diameter of zone of inhibition ([1]; Quantity n 0.09): 24 mm
Diameter of zone of inhibition ([1]; Quantity n 0.19): 28 mm
Diameter of zone of inhibition ([2]; Quantity n [mol] 0.019): 12 mm
Diameter of zone of inhibition ([2]; Quantity n [mol] 0.09): 22 mm
Diameter of zone of inhibition ([2]; Quantity n [mol] 0.19): 28 mm
Diameter of zone of inhibition ([3]; Quantity n 0.019): 20 mm
Diameter of zone of inhibition ([3]; Quantity n 0.09): 28 mm
Diameter of zone of inhibition ([3]; Quantity n 0.19): 30 mm
Diameter of zone of inhibition ([4]; Quantity n 0.019): 18 mm
Diameter of zone of inhibition ([4]; Quantity n 0.09): 28 mm
Diameter of zone of inhibition ([4]; Quantity n 0.19): 32 mm
Diameter of zone of inhibition ([5]; Quantity n 0.019): r
Diameter of zone of inhibition ([5]; Quantity n 0.09): r
Diameter of zone of inhibition ([5]; Quantity n 0.19): r
Diameter of zone of inhibition ([6]; Quantity n 0.019): r
Diameter of zone of inhibition ([6]; Quantity n 0.09): r
Diameter of zone of inhibition ([6]; Quantity n 0.19): 10 mm
Diameter of zone of inhibition ([7]; Quantity n 0.019): r
Diameter of zone of inhibition ([7]; Quantity n 0.09): 14 mm
Diameter of zone of inhibition ([7]; Quantity n 0.19): 20 mm
Diameter of zone of inhibition ([8]; Quantity n 0.019): r
Diameter of zone of inhibition ([8]; Quantity n 0.09): 14 mm
Diameter of zone of inhibition ([8]; Quantity n 0.19): 18 mm
Diameter of zone of inhibition ([9]; Quantity n [mol] 0.019): r
Diameter of zone of inhibition ([9]; Quantity n [mol] 0.09): 12 mm
Diameter of zone of inhibition ([9]; Quantity n [mol] 0.19): 18 mm
Diameter of zone of inhibition ([10]; Quantity n 0.019): r
Diameter of zone of inhibition ([10]; Quantity n 0.09): 10 mm
Diameter of zone of inhibition ([10]; Quantity n 0.19): 16 mm
Diameter of zone of inhibition ([11]; Quantity n 0.019): r
Diameter of zone of inhibition ([11]; Quantity n 0.09): r
Diameter of zone of inhibition ([11]; Quantity n 0.19): r
Diameter of zone of inhibition ([12]; Quantity n [mol] 0.019): r
Diameter of zone of inhibition ([12]; Quantity n [mol] 0.09): r
Diameter of zone of inhibition ([12]; Quantity n [mol] 0.19): r
Diameter of zone of inhibition ([13]; Quantity n [mol] 0.019): r
Diameter of zone of inhibition ([13]; Quantity n [mol] 0.09): r
Diameter of zone of inhibition ([13]; Quantity n [mol] 0.19): r
Diameter of zone of inhibition ([14]; Quantity n [μmol] 0.019): r
Diameter of zone of inhibition ([14]; Quantity n [μmol] 0.09): 16 mm
Diameter of zone of inhibition ([14]; Quantity n [μmol] 0.19): 20 mm
Diameter of zone of inhibition ([15]; Quantity n 0.019): r
Diameter of zone of inhibition ([15]; Quantity n 0.09): 8 mm
Diameter of zone of inhibition ([15]; Quantity n 0.19): 12 mm
Diameter of zone of inhibition ([16]; Quantity n 0.019): r
Diameter of zone of inhibition ([16]; Quantity n 0.09): 8 mm
Diameter of zone of inhibition ([16]; Quantity n 0.19): 14 mm
Diameter of zone of inhibition ([17]; Quantity n 0.019): r
Diameter of zone of inhibition ([17]; Quantity n 0.09): r
Diameter of zone of inhibition ([17]; Quantity n 0.19): 12 mm
Diameter of zone of inhibition ([18]; Quantity n 0.019): r
Diameter of zone of inhibition ([18]; Quantity n 0.09): 14 mm
Diameter of zone of inhibition ([18]; Quantity n 0.19): 18 mm
Diameter of zone of inhibition ([19]; Quantity n 0.019): r
Diameter of zone of inhibition ([19]; Quantity n 0.09): r
Diameter of zone of inhibition ([19]; Quantity n 0.19): r
Diameter of zone of inhibition ([20]; Quantity n 0.019): 22 mm
Diameter of zone of inhibition ([20]; Quantity n 0.09): 30 mm
Diameter of zone of inhibition ([20]; Quantity n 0.19): 32 mm
